Data reported in US8933147B2, “Anti-microbial dental impression material” (3M Innovative Properties Company, priority 2005, dated 2015).

Legend:
[1] = test system: Streptococcus mutans (DSM 20523); assay: Laboratory model of impression taking: material set against filters loaded with Streptococcus mutans, rinsed, remaining growth on agar; type: cell-based; set-up: key: confluent growth, +++; many colonies, ++; few colonies, +; no growth, −; conditions: Impregum Garant L DuoSoft
Description: (§1) A laboratory system was worked out that models the clinical procedure of impression taking with concomitant contamination of the material, the removal of the material from the mouth and the subsequent cleaning by a brief rinse under tap water. The remaining contamination was determined by microbiological methods:
(§2) Impression material was applied into sterile Petri dishes. Filters loaded with Streptococcus mutans (DSM 20523) or stimulated human saliva were contacted with the material during setting. A Strep. mutans concentration of approx. 5E9 CFU/ml was chosen which is similar to the microorganismsl number found salviva. After setting, the material was removed from the contaminated filter and briefly rinsed with sterile water.
(§3) Remaining microorganisms were transferred to agar plates and the plates were incubated anaerobically at 37° C. to allow for growth of surviving microorganisms. Microorganisms growth was recorded as confluent growth, +++; many colonies, ++; few colonies, +; no growth, −.

[2] = test system: salivary microorganisms; assay: Laboratory model of impression taking: material set against filters loaded with stimulated human saliva, rinsed, remaining growth on agar; type: cell-based; set-up: key: confluent growth, +++; many colonies, ++; few colonies, +; no growth, −; conditions: Impregum Garant L DuoSoft
Description: as §1, §2, §3

[3] = Chlorhexidine 1.5 % in cured paste
[4] = Chlorhexidine 3.6 % in cured paste

chlorhexidine diacetate hydrate [CHX diacetate hydrate]
−: Growth of S. mutans (initial conc. 5E9 CFU/ml) ([1]; Chlorhexidine 0.6-0.7 % in cured paste) | Growth of S. mutans (initial conc. 5E9 CFU/ml) ([1]; Chlorhexidine 0.8 % in cured paste) | Growth of S. mutans (initial conc. 5E9 CFU/ml) [1, 3] | Growth of S. mutans (initial conc. 5E9 CFU/ml) [1, 4] | Growth of salivary microorganisms (initial conc. 5E7 CFU/ml) [2, 3] | Growth of salivary microorganisms (initial conc. 5E7 CFU/ml) [2, 4]
+++: Growth of S. mutans (initial conc. 5E9 CFU/ml) ([1]; Chlorhexidine <0.2 % in cured paste)
